Source: patent publication US10399950B2, “Substituted amino azoles as plant growth regulators” (SYNGENTA PARTICIPATIONS AG, priority 2013, dated 2019)

Assays:
[1] = system: Wheat (Triticum aestivum) seeds of the variety Arina; assay: Wheat assay: plant (root and shoot) area and curliness of the roots; assay type: in vivo; conditions: seeds in pouches with 10 mL compound solution; scanned twelve days after sowing/application
Method: Two bioassays were developed in order to assay the activity of the compounds of the present invention. In the first assay, the activity of the compound was quantified in beans based on its effect on the elongation of the petiole of the second leaf. In the second assay, the compound's effect on the root growth of wheat was determined. The test compounds were dissolved in small volumes of dimethyl sulfoxide and diluted to the appropriate concentration with water. Wheat (Triticum aestivum) seeds of the variety Arina were sown in pouches (14.7×13.2 cm) containing 10 mL of the appropriate compound solution. The pouches were stored at 17° C. for three days to enable the seeds to germinate. Plants were then stored at 5° C. Twelve days after sowing/application, plants were removed from the pouches and scanned. The effect of the compounds was quantified by determining plant (root and shoot) area and curliness of the roots (curliness is an indicator of brassinosteroid-type activity).

[2] = molecular target: T1, Arabidopsis BIN2 kinase (Uniprot Q39011), His6-BIN2 (Arabidopsis thaliana, UniProt Q39011); assay: In vitro assay for inhibition of plant GSK3/shaggy-like kinase activity (ADP-Glo); assay type: biochemical; conditions: compounds at 5 μM; 5 μM ATP; myelin basic protein substrate; 1 h at 20° C.; triplicate; read-out: inhibition of the activity of His6-BIN2 relative to the solvent vehicle control
T1 construct: made in house; host or cells: E. coli BL21
T1 sequence (Q39011 1-380): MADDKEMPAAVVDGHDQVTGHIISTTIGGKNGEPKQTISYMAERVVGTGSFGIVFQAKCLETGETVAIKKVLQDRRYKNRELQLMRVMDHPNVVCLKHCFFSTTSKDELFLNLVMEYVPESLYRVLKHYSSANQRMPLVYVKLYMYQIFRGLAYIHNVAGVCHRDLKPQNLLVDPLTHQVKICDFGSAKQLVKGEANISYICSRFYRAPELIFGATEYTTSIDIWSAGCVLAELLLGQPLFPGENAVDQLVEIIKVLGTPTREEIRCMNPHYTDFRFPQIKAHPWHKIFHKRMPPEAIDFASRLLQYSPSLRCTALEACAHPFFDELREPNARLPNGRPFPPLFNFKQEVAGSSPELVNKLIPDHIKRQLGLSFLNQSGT
Method: Arabidopsis BIN2 kinase (Uniprot Q39011) was produced in E. coli BL21 as an N-terminal hexahistidine fusion protein. In vitro kinase assays were performed by incubating 50 ng His6-BIN2 protein with 5 μg myelin basic protein (Sigma-Aldrich) as substrate and 5 μM ATP as co-substrate in reaction buffer consisting of 40 mM Tris-HCl, 20 mM MgCl2 and 0.1 mg/mL bovine serum albumin in a final reaction volume of 50 μl. Enzyme activity was assessed in the absence and presence of compounds (described in Tables A and B) at 5 μM by measuring the level of ADP produced after incubation for 1 h at 20° C. using an enzyme-coupled bioluminescent assay (ADP-Glo, Promega Corp.). The experiment was performed in triplicate and principaly on the acid form (as it the active A1).

melting point [°C]	inhibition at 5 µM [2] [%]	SMILES	curliness of the roots (indicator of brassinosteroid-type activity) [1]
118 to 119		COC(=O)CCC(=O)Nc1ncc(C#N)s1 [A1, Methyl 4-[(5-cyanothiazol-2-yl)amino]-4-oxo-butanoate]	curly root phenotype
	≥ 20	N#Cc1cnc(NC(=O)CCC(=O)O)s1 [A5, 4-[(5-cyanothiazol-2-yl)amino]-4-oxo-butanoic acid]	curly root phenotype
